Earlier results as cited in US11234954B2, “Low-dose doxepin for treatment of sleep disorders in elderly patients” (Pernix Sleep, Inc., priority 2006, dated 2022).

Conditions: major active metabolite of doxepin; cited from earlier work

For `CNCC/C=C1\c2ccccc2COc2ccccc21` [desmethyldoxepin, Desmethyldoxepin], the half-life is given as 51 h.
